Results published in PubChem BioAssay AID248 (DTP/NCI, 2004).
Several values for one entry are separate records, joined by “and”; a condition that tells them apart may be missing. Equal entries are not always repeated. Toxic doses and inconclusive results are not listed.

System: L1210 leukemia ip in BDF1 mice, survival T/C
Experiment: NCI In Vivo Anticancer Drug Screen. Data for tumor model L1210 Leukemia (intraperitoneal) in B6D2F1 (BDF1) mice
Conditions: endpoint: mean survival time, higher = longer survival
Outline: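 Mice bearing the transplanted tumor received compound or vehicle. Survival of the treated group was divided by that of the vehicle-treated control group to give the ratio.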

[1] = dose: 100.0 mg/kg/injection, schedule: Q04DX002 (ip), vehicle: Klucel (hydroxypropylcellulose) (HPC)
[2] = dose: 200.0 mg/kg/injection, schedule: Q04DX002 (ip), vehicle: Klucel (hydroxypropylcellulose) (HPC)
[3] = dose: 400.0 mg/kg/injection, schedule: Q04DX002 (ip), vehicle: Klucel (hydroxypropylcellulose) (HPC)
[4] = dose: 100.0 mg/kg/injection, schedule: Q04DX003 (ip), vehicle: saline
[5] = dose: 200.0 mg/kg/injection, schedule: Q04DX003 (ip), vehicle: saline
[6] = dose: 400.0 mg/kg/injection, schedule: Q04DX003 (ip), vehicle: saline
[7] = dose: 25.0 mg/kg/injection, schedule: Q04DX003 (ip), vehicle: saline
[8] = dose: 50.0 mg/kg/injection, schedule: Q04DX003 (ip), vehicle: saline
[9] = dose: 25.0 mg/kg/injection, schedule: Q01DX009 (ip), vehicle: saline with Tween-80
[10] = dose: 25.0 mg/kg/injection, schedule: Q04DX003 (ip), vehicle: saline with Tween-80
[11] = dose: 50.0 mg/kg/injection, schedule: Q01DX009 (ip), vehicle: saline with Tween-80
[12] = dose: 100.0 mg/kg/injection, schedule: Q01DX009 (ip), vehicle: saline with Tween-80
[13] = dose: 100.0 mg/kg/injection, schedule: Q04DX003 (ip), vehicle: saline with Tween-80
[14] = dose: 200.0 mg/kg/injection, schedule: Q04DX003 (ip), vehicle: saline with Tween-80
[15] = dose: 400.0 mg/kg/injection, schedule: Q04DX003 (ip), vehicle: saline with Tween-80

CCCCOC(=O)c1ccc(NC(=S)NC(=O)COc2ccccc2)cc1
T/C [1]: 118 % of control
T/C [2]: 101 % of control
T/C [3]: 97 % of control

N#CCCCN1CCOCC1
T/C [4]: 96 % of control
T/C [5]: 96 % of control
T/C [6]: 104 % of control

COC(=O)c1cccc2cnccc12
T/C (dose: 100.0 mg/kg/injection, schedule: Q04DX003 (ip), vehicle: Klucel (hydroxypropylcellulose) (HPC)): 107 % of control
T/C (dose: 200.0 mg/kg/injection, schedule: Q04DX003 (ip), vehicle: Klucel (hydroxypropylcellulose) (HPC)): 110 % of control
T/C (dose: 400.0 mg/kg/injection, schedule: Q04DX003 (ip), vehicle: Klucel (hydroxypropylcellulose) (HPC)): 96 % of control

CC1CCCCC1(C)C1C=CC(=O)OC1(C)C (configuration not stated)
T/C [7]: 97 % of control
T/C [8]: 97 % of control
T/C [4]: 97 % of control

CC1(C)OC2C3COc4nc5c(N)ncnc5n4C(O3)C2O1 (configuration not stated)
T/C (dose: 100.0 mg/kg/injection, schedule: Q01DX001 (ip), vehicle: steriod suspending solution): 112 % of control
T/C (dose: 200.0 mg/kg/injection, schedule: Q01DX001 (ip), vehicle: steriod suspending solution): 101 % of control
T/C (dose: 400.0 mg/kg/injection, schedule: Q01DX001 (ip), vehicle: steriod suspending solution): 98 % of control

C=CCNC(=S)C(C(=O)OC)C(=O)OC
T/C [4]: 103 % of control
T/C [5]: 100 % of control
T/C [6]: 100 % of control

COc1cccn(C/C=C(\C)CCC=C(C)C)c1=O
T/C [9]: 104 % of control
T/C [10]: 99 % of control
T/C [11]: 94 % of control
T/C (dose: 50.0 mg/kg/injection, schedule: Q04DX003 (ip), vehicle: saline with Tween-80): 97 % of control
T/C [12]: 90 % of control
T/C [13]: 91 % of control

O=C(O)c1ccc(COc2ccc([N+](=O)[O-])cc2Cl)cc1
T/C (dose: 100.0 mg/kg/injection, schedule: Q01DX009 (ip), vehicle: saline sonified): 96 % of control
T/C [13]: 96 % of control
T/C (dose: 200.0 mg/kg/injection, schedule: Q01DX009 (ip), vehicle: saline sonified): 97 % of control
T/C [14]: 96 % of control
T/C [15]: 101 % of control

CCOC(=O)c1c(O)cc(C)[nH]c1=O
T/C (dose: 50.0 mg/kg/injection, schedule: Q01DX001 (ip), vehicle: saline): 102 % of control
T/C (dose: 100.0 mg/kg/injection, schedule: Q01DX001 (ip), vehicle: saline): 96 % of control
T/C (dose: 200.0 mg/kg/injection, schedule: Q01DX001 (ip), vehicle: saline): 104 % of control
T/C (dose: 400.0 mg/kg/injection, schedule: Q01DX001 (ip), vehicle: saline): 104 % of control

CC(=C/c1ccccc1)/C=N/N=C(N)N
T/C (dose: 3.8 mg/kg/injection, schedule: Q01DX Z (ip), vehicle: saline): 97 % of control
T/C (dose: 7.5 mg/kg/injection, schedule: Q01DX Z (ip), vehicle: saline): 94 % of control
T/C (dose: 15.0 mg/kg/injection, schedule: Q01DX Z (ip), vehicle: saline): 90 % of control

Cc1nc(N)[nH]c(=O)c1CCCNc1ccc(CCCCC2(CCl)OCCO2)cc1
T/C (dose: 50.0 mg/kg/injection, schedule: Q01DX Z (ip), vehicle: carboxymethylcellulose (CMC)): 98 % of control
T/C (dose: 100.0 mg/kg/injection, schedule: Q01DX Z (ip), vehicle: carboxymethylcellulose (CMC)): 101 % of control
T/C (dose: 200.0 mg/kg/injection, schedule: Q01DX Z (ip), vehicle: carboxymethylcellulose (CMC)): 95 % of control
T/C (dose: 400.0 mg/kg/injection, schedule: Q01DX Z (ip), vehicle: carboxymethylcellulose (CMC)): 101 % of control

CC1(C)N=C(N)N=C(N)N1c1cccc(CN)c1
T/C (dose: 25.0 mg/kg/injection, schedule: Q01DX009 (ip), vehicle: saline): 101 % of control
T/C [7]: 101 % of control
T/C (dose: 50.0 mg/kg/injection, schedule: Q01DX009 (ip), vehicle: saline): 102 % of control and 103 % of control
T/C [8]: 103 % of control
T/C (dose: 100.0 mg/kg/injection, schedule: Q01DX009 (ip), vehicle: saline): 98 % of control and 86 % of control
T/C [4]: 102 % of control and 105 % of control

CCOP(=O)(Cc1ccccc1)OCC
T/C [4]: 110 % of control
T/C [5]: 103 % of control
T/C [6]: 98 % of control

COc1ccc(C23OC2Oc2cc(OC4CCCCO4)ccc2C3O)cc1 (configuration not stated)
T/C (dose: 50.0 mg/kg/injection, schedule: Q01DX001 (sc), vehicle: steriod suspending solution): 101 % of control
T/C (dose: 100.0 mg/kg/injection, schedule: Q01DX001 (sc), vehicle: steriod suspending solution): 101 % of control
T/C (dose: 200.0 mg/kg/injection, schedule: Q01DX001 (sc), vehicle: steriod suspending solution): 101 % of control
T/C (dose: 400.0 mg/kg/injection, schedule: Q01DX001 (sc), vehicle: steriod suspending solution): 95 % of control

Cc1ccc(NC(=O)c2ccc(C(=O)Nc3ccc(C)cc3)cc2)cc1
T/C (dose: 56.0 mg/kg/injection, schedule: Q01DX Z (ip), vehicle: carboxymethylcellulose (CMC)): 88 % of control
T/C (dose: 225.0 mg/kg/injection, schedule: Q01DX Z (ip), vehicle: carboxymethylcellulose (CMC)): 92 % of control

CCCCN=C(N)c1ccc(NC(=O)c2ccc(C(=O)Nc3ccc(C(N)=NCCCC)cc3)cc2)cc1
T/C (dose: 6.0 mg/kg/injection, schedule: Q01DX001 (ip), vehicle: methylcellulose (MC)): 110 % of control
T/C (dose: 6.0 mg/kg/injection, schedule: Q01DX Z (ip), vehicle: methylcellulose (MC)): 212 % of control
T/C (dose: 12.0 mg/kg/injection, schedule: Q01DX Z (ip), vehicle: methylcellulose (MC)): 100 % of control
T/C (dose: 15.0 mg/kg/injection, schedule: Q01DX001 (ip), vehicle: methylcellulose (MC)): 119 % of control

CC(=O)NCc1ccc([N+](=O)[O-])cc1
T/C [9]: 100 % of control
T/C [11]: 107 % of control
T/C [12]: 104 % of control
T/C (dose: 200.0 mg/kg/injection, schedule: Q01DX009 (ip), vehicle: saline with Tween-80): 111 % of control

CC1(C)C(O)(C#N)C(C)(C)C1(O)C#N (configuration not stated)
T/C (dose: 3.13 mg/kg/injection, schedule: Q01DX009 (ip), vehicle: saline): 107 % of control
T/C (dose: 6.25 mg/kg/injection, schedule: Q01DX009 (ip), vehicle: saline): 115 % of control
T/C (dose: 12.5 mg/kg/injection, schedule: Q01DX009 (ip), vehicle: saline): 105 % of control

CCCCCCCCNCCOC(=O)c1ccc(N(CC)CC)cc1
T/C (dose: 75.0 mg/kg/injection, schedule: Q01DX001 (ip), vehicle: carboxymethylcellulose (CMC)): 91 % of control
T/C (dose: 150.0 mg/kg/injection, schedule: Q01DX001 (ip), vehicle: carboxymethylcellulose (CMC)): 97 % of control

CC(C)c1nc2c(n1Cc1ccccc1)C=C(C(=O)c1ccccc1)S(=O)(=O)C(C(=O)c1ccccc1)=C2
T/C [10]: 107 % of control and 86 % of control
T/C (dose: 50.0 mg/kg/injection, schedule: Q01DX001 (ip), vehicle: saline with Tween-80): 93 % of control and 104 % of control
T/C (dose: 50.0 mg/kg/injection, schedule: Q04DX002 (ip), vehicle: Klucel (hydroxypropylcellulose) (HPC)): 106 % of control
T/C (dose: 50.0 mg/kg/injection, schedule: Q04DX002 (ip), vehicle: saline with Tween-80): 104 % of control and 105 % of control
T/C (dose: 100.0 mg/kg/injection, schedule: Q01DX001 (ip), vehicle: saline with Tween-80): 93 % of control and 89 % of control
T/C [1]: 110 % of control
T/C (dose: 200.0 mg/kg/injection, schedule: Q01DX001 (ip), vehicle: saline with Tween-80): 100 % of control and 91 % of control
T/C [2]: 93 % of control and 103 % of control
T/C [14]: 96 % of control and 89 % of control
T/C [3]: 93 % of control
T/C (dose: 400.0 mg/kg/injection, schedule: Q04DX002 (ip), vehicle: saline with Tween-80): 93 % of control and 89 % of control

O=C(O)c1cc(I)cc(I)c1
T/C [13]: 105 % of control
T/C [14]: 101 % of control
T/C [15]: 95 % of control

CCCCC(CC)CNCCOC(=O)c1ccc(N)cc1 (configuration not stated)
T/C (dose: 75.0 mg/kg/injection, schedule: Q01DX001 (ip), vehicle: other): 92 % of control
T/C (dose: 150.0 mg/kg/injection, schedule: Q01DX001 (ip), vehicle: other): 100 % of control

O=C(/C=C/c1ccccc1)C1(c2ccccc2)CC1
T/C (dose: 100.0 mg/kg/injection, schedule: Q01DX001 (ip), vehicle: Klucel (hydroxypropylcellulose) (HPC)): 98 % of control
T/C (dose: 200.0 mg/kg/injection, schedule: Q01DX001 (ip), vehicle: Klucel (hydroxypropylcellulose) (HPC)): 100 % of control
T/C (dose: 400.0 mg/kg/injection, schedule: Q01DX001 (ip), vehicle: Klucel (hydroxypropylcellulose) (HPC)): 98 % of control
